Laboratory results published in US11708340B2, “Benzothia(di)azepine compounds and their use as bile acid modulators” (Albireo AB, priority 2019, dated 2023).

Legend:
Human IBAT = target: T1, Human IBAT (Homo sapiens, UniProt Q12908); test: IBAT (h/m) assay, human IBAT-overexpressing cells, 3H-taurocholic acid uptake; assay type: cell-based; conditions: highest test concentration 10 μM, 20 minutes, read-out: hIBAT IC50
T1 construct: expressed in transfected cells; Puromycin selection
T1 sequence (Q12908 1-348): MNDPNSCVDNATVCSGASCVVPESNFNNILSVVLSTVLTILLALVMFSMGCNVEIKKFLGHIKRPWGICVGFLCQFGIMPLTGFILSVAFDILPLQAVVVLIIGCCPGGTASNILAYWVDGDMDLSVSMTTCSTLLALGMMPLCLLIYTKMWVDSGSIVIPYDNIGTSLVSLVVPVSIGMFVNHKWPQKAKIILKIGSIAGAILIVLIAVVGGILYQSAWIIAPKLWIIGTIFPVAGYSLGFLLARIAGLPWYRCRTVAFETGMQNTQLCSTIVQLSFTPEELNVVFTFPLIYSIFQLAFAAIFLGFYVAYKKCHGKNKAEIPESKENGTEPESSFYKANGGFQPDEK
Method: 10,000 cells (Human or Mouse IBAT-overexpressing cells) were seeded in 96-wells plate (Corning CLS3809) in 200 μL MEM-alpha medium (Gibco 12571-063) supplemented with 10% FBS (Gibco 10438026) containing Puromycin (Gibco A1113803) (10 μg/mL) and incubated at 37° C. in 5% CO2 for 48 hours. After incubation, media was decanted from the wells and cells were washed two times with 300 μL of basal MEM-alpha medium (FBS-free). After decanting basal MEM-alpha medium each time, plates were tapped against paper towel to ensure maximum removal of residual media. Test inhibitor dilutions (highest test concentration being 10 μM, 3-fold serial dilution, 10 points) prepared in DMSO (Sigma D2650) were added in incubation mix (maintaining 0.2% final DMSO concentration) containing 0.25 μM 3H-taurocholic acid (ARC ART-1368) and 5 μM of cold taurocholic acid (Sigma T4009). 50 μL of incubation mix containing test inhibitors was then added to the wells (in duplicate) and the plates were incubated for 20 minutes in a CO2 incubator at 37° C. After incubation, the reaction was stopped by keeping the plates on ice water mix for 2-3 minutes and then the incubation mix was aspirated completely from the wells. The wells were washed two times with 250 μL of chilled unlabeled 1 mM taurocholic acid dissolved in HEPES (Gibco 15630080)-buffered (10 mM) HBSS (Gibco 14175079) (pH 7.4). The plates were tapped against a paper towel after every wash to ensure maximum removal of blocking buffer.
(§1) 100 μL of MicroScint-20 (PerkinElmer 6013621) was added to the wells and kept overnight at room temperature before reading the plates in TopCount NXT™ Microplate Scintillation and Luminescence Counter from PerkinElmer under 3H Test protocol (set at 120 seconds reading time per well).
(§2) All test compounds were provided in powder form at room temperature. 10 mM DMSO stocks of the test compounds were prepared, aliquoted and stored at −20° C. From the 10 mM DMSO stock of the compounds, a 3-fold serial dilution in DMSO was prepared to get a total of 10 dilutions of the test compounds. 0.5 μL of this dilution in DMSO was added to 250 μL of FBS-free basal media containing 3H-taurocholic acid and cold taurocholic acid to prepare the incubation mixture.

[1] = Bidirectional permeability assay (Caco-2 cells); assay type: in vitro ADME; conditions: human, 10 μM in FaSSIF buffer; for Papp A→B at 120 min, 10 μM: Caco-2, pH 7.4, absorptive direction (A2B); for Papp B→A at 120 min, 10 μM: Caco-2, pH 7.4, secretory direction (B2A)
Text: HepaRG-Based Assay Protocol

Human LBAT = target: T2, Human LBAT (Homo sapiens, UniProt Q14973); test: LBAT (h/m) assay, human LBAT-overexpressing cells, 3H-taurocholic acid uptake; assay type: cell-based; conditions: 0.3 μM 3H-taurocholic acid and 7.5 μM cold taurocholic acid, 20 minutes, read-out: hLBAT IC50
T2 construct: expressed in transfected cells; Geneticin selection
T2 sequence (Q14973 1-349): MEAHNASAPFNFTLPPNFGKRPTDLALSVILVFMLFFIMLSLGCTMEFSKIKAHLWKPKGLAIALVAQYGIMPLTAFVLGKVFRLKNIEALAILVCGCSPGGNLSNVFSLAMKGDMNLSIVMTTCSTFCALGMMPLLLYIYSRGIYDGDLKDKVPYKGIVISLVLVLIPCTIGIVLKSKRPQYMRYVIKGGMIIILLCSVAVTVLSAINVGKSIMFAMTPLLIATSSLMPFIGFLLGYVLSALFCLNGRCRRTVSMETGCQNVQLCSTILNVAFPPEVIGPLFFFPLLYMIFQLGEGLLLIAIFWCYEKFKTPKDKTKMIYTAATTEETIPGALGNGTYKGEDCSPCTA
Method: 20,000 cells (Human or Mouse LBAT-overexpressing cells) were seeded in 96-wells plate (Corning CLS3809) in 100 μL MEM-alpha medium (Gibco 12571-063) supplemented with 10% FBS (Gibco 10438026) containing Geneticin (Gibco 10131-027) (1 mg/mL) and incubated at 37° C. in 5% CO2 for 24 hours. After incubation, media was decanted from the wells and cells were washed two times with 300 μL of basal MEM-alpha medium (FBS-free). After decanting basal MEM-alpha medium each time, plates were tapped against paper towel to ensure maximum removal of residual media.
For human LBAT, incubation mix was prepared by adding test inhibitor dilutions (3-fold serial dilution in DMSO (Sigma D2650), 10 points) in MEM-alpha (without FBS) containing 0.3 μM 3H-taurocholic acid (ARC ART-1368) and 7.5 μM cold taurocholic acid (Sigma T4009) (maintaining 0.2% final DMSO concentration). For mouse LBAT, incubation mix was prepared by adding test inhibitor dilutions (3-fold serial dilution in DMSO, 10 points) in MEM-alpha (without FBS) containing 0.3 μM 3H-taurocholic acid and 25 μM cold taurocholic acid maintaining 0.2% final DMSO concentration).
50 μL of incubation mix containing test inhibitors was then added to the wells (in duplicate) and the plates were incubated for 20 minutes in a CO2 incubator at 37° C. After incubation, the reaction was stopped by keeping the plates on ice water mix for 2-3 minutes and then the incubation mix was aspirated completely from the wells. The wells were washed two times with 250 μL of chilled unlabeled 1 mM taurocholic acid dissolved in HEPES (Gibco 15630080)-buffered (10 mM) HBSS (Gibco 14175079) (pH 7.4). The plates were tapped against a paper towel after every wash to ensure maximum removal of blocking buffer.
as §1, with “well, with normal plate orientation).” for “well).”
as §2

OATP KO mice = test: Effect of LBAT selective compounds on serum bile acid levels in OATP KO mice; assay type: in vivo; conditions: for effect on serum bile acid levels: oral administration, FIGS. 1 to 4
Text: Male OATP KO mice (Oatp1a/1b cluster knockout mice, Taconic, USA) aged 8 to 9 weeks were used in the studies. After completion of quarantine and acclimatization period, animals were randomized based on body weight into experimental groups (n=4 mice in each). On the experimental day, a baseline blood sample was collected followed by oral dosing of vehicle (0.5% CMC, 0.1% Tween 80) or compound of Example 3, 6, 13 or 15 at the indicated doses. Blood samples were then collected at various time points after dose (indicated in each graph). Blood was allowed to clot, and serum was collected by centrifugation at 3000 g, 4° C. for 15 minutes and stored at −80° C. for further analysis. The total bile acid concentration in each serum sample was determined by using the CELL BIOLABS Total Bile Acids kit (STA631) according to manufacturer's instructions. Mean±SEM, n=4.

Bioavailability studies = assay type: in vivo, mice (C57BL/6); conditions: male, mouse, plasma; C57BL/6 mice; single intravenous dose 1 mg/kg and single oral dose 10 mg/kg
Method: Male mice (C57BL/6 or CD1) or Wistar rats of 8-9 weeks old were used. For each test compound, two groups of 3 animals each were used. One group was administered a single intravenous dose of 1 mg/kg (vehicle 100% DMSO) through the tail vein and the other group was administered a single oral dose of 10 mg/kg through gavage needle. The group that was administered an oral dose was fasted overnight. Blood samples were collected after 0.083, 0.25, 0.5, 1, 2, 4, 6, 8 and 24 hours following intravenous administration, and after 0.25, 0.5, 1, 2, 4, 6, 8 and 24 hours following oral administration. Blood samples were taken from saphenous vein. 0.2% EDTA was used as the anticoagulant. The samples were analyzed by a discovery grade bioanalytical method developed for the estimation of test compound in plasma, using an LC-MS/MS system.

| Compound | IC50 (Human IBAT) | Papp A→B at 120 min, 10 μM [1] | Papp B→A at 120 min, 10 μM [1] | IC50 (Human LBAT) | bioavailability (Bioavailability studies) | effect on serum bile acid levels (OATP KO mice) | serum bile acids levels (OATP KO mice; oral 30 mg/kg, within one hour after dosing) |
| --- | --- | --- | --- | --- | --- | --- | --- |
| CCCCC1CN(c2ccc(F)cc2)c2cc(SCC)c(O/C=C/C(=O)O)cc2S(=O)(=O)N1C (racemic) [Example 23, (E)-3-((3-butyl-7-(ethylthio)-5-(4-fluorophenyl)-2-methyl-1,1-dioxido-2,3,4,5-tetrahydro-1,2,5-benzothiadiazepin-8-yl)oxy)acrylic Acid] | 3060 nM | 12.6 ×10⁻⁶ cm/s | 9.3 ×10⁻⁶ cm/s | 1 nM | – | – | – |
| CCCC[C@@H]1CN(c2ccccc2)c2cc(SC)c(O/C=C(\F)C(=O)O)cc2S(=O)(=O)N1C (single isomer, unassigned) [Example 13] | 568 nM | 3.1 ×10⁻⁶ cm/s | 9.6 ×10⁻⁶ cm/s | 0.6 nM | 61% | increased serum bile acids in a dose-dependent manner | about 100 μmol/L |
| CCCC[C@H]1CN(c2ccccc2)c2cc(SC)c(O/C=C/C(=O)O)cc2S(=O)(=O)N1C (single isomer, unassigned) [Example 15] | – | 14.1 ×10⁻⁶ cm/s | 13 ×10⁻⁶ cm/s | 2.2 nM | 50% | increased serum bile acid levels | – |
| CCCC[C@H]1CN(c2ccccc2)c2cc(SCC)c(O/C=C/C(=O)O)cc2S(=O)(=O)N1C (single isomer, unassigned) [Example 18] | 5280 nM | 15 ×10⁻⁶ cm/s | 9.7 ×10⁻⁶ cm/s | 2.4 nM | – | – | – |
| CCCCC1CN(c2ccccc2)c2cc(SC)c(O/C=C(\F)C(=O)O)cc2S(=O)(=O)N1 (stereo not shown) [Example 10, (Z)-3-((3-butyl-7-(methylthio)-1,1-dioxido-5-phenyl-2,3,4,5-tetrahydro-1,2,5-benzothiadiazepin-8-yl)oxy)-2-fluoroacrylic Acid] | 1140 nM | 0.5 ×10⁻⁶ cm/s | 1.9 ×10⁻⁶ cm/s | 1 nM | – | – | – |

Now from value to compound, other results behind:

| IC50 (Human IBAT) | Papp A→B at 120 min, 10 μM [1] | Papp B→A at 120 min, 10 μM [1] | IC50 (Human LBAT) | bioavailability (Bioavailability studies) | Compound | effect on serum bile acid levels (OATP KO mice) | serum bile acids levels (OATP KO mice; oral 30 mg/kg, within one hour after dosing) |
| --- | --- | --- | --- | --- | --- | --- | --- |
| ≥ 10000 nM | 25.6 ×10⁻⁶ cm/s | 19.1 ×10⁻⁶ cm/s | 9.9 nM | – | CCCCC1CN(c2ccccc2)c2cc(SC)c(O/C=C/C(=O)O)cc2S(=O)(=O)C1 (racemic) [Example 1, (E)-3-((3-butyl-7-(methylthio)-1,1-dioxido-5-phenyl-2,3,4,5-tetrahydro-1,5-benzothiazepin-8-yl)oxy)acrylic Acid] | – | – |
| – | 24 ×10⁻⁶ cm/s | 18.8 ×10⁻⁶ cm/s | 4.8 nM | 50% | CCCC[C@H]1CN(c2ccccc2)c2cc(SC)c(O/C=C/C(=O)O)cc2S(=O)(=O)C1 (single isomer, unassigned) [Example 3] | increased serum bile acid levels | – |
| 1440 nM | 2.7 ×10⁻⁶ cm/s | 5.5 ×10⁻⁶ cm/s | 1.4 nM | 26% | CCCC[C@@H]1CN(c2ccccc2)c2cc(SC)c(O/C=C(\F)C(=O)O)cc2S(=O)(=O)C1 (single isomer, unassigned) [Example 6] | increased serum bile acid levels | – |
| 1510 nM | 2.4 ×10⁻⁶ cm/s | 6 ×10⁻⁶ cm/s | 1.9 nM | – | CCCCC1CN(c2ccccc2)c2cc(SC)c(O/C=C(\F)C(=O)O)cc2S(=O)(=O)C1 (stereo not shown) [Example 4, (Z)-3-((3-butyl-7-(methylthio)-1,1-dioxido-5-phenyl-2,3,4,5-tetrahydro-1,5-benzothiazepin-8-yl)oxy)-2-fluoroacrylic Acid] | – | – |
